One may read the IC50 as the concentration that gives 50% inhibition.

These results are taken from US8710232B2, “Imidazole derivatives used as TAFIa inhibitors” (Sanofi-Aventis Deutschland GmbH, priority 2004, dated 2014).

Sequence of TAFIa (Q96IY4 115-423): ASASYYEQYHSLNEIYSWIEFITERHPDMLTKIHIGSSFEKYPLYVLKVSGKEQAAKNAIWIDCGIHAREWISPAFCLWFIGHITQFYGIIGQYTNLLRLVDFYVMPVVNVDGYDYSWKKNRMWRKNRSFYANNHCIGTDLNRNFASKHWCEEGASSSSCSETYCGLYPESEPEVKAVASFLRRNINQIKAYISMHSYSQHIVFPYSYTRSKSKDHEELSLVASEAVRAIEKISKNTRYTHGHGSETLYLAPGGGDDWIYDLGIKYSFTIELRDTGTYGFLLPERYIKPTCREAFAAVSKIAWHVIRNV

In the assay the target is TAFIa (Homo sapiens (Human), UniProt Q96IY4). Description: TAFIa enzyme assay (Actichrome plasma TAFI activity kit). The class given is biochemical. The settings on record: 15 min preincubation at room temperature, read at 420 nm, duplicate determination. Here is the method:
The prepared substances were tested for TAFIa inhibition using the Actichrome plasma TAFI activity kit from American Diagnostica (Pr. No. 874). This entailed adding 29 μl of assay buffer (20 mM Hepes, 150 mM NaCl, pH 7.4) and 10 μl of TAFIa (American Diagnostica Pr. No. 874TAFIA; […]) to 1 μl of 5 mM DMSO solution of the substance and incubating in a 96 half-well microtiter plate at room temperature for 15 minutes. The enzymic reaction was started by adding 10 μl of TAFIa developer (prediluted 1:2 with water). The time course of the reaction was followed at 420 nm in a microtiter plate reader (SpectraMax plus 384; Molecular Devices) for 15 minutes. The IC50 was calculated from the averaged values (duplicate determination) of serial dilutions of the substance with the aid of the Grafit 4 software (Erithacus Software, UK).
`Nc1ccc(CC(C(=O)O)c2cn(Cc3cccc(Oc4ccc(F)cc4)c3)cn2)cn1` (stereo not drawn) [Example 28, 3-(6-Aminopyridin-3-yl)-2-{1-[3-(4-fluorophenoxy)benzyl]-1H-imidazol-4-yl}propionic acid] showed an IC50 of 1440 nM.

Regarding `Nc1ccc(CC(C(=O)O)c2cn(Cc3csc4ccc(Cl)cc34)cn2)cn1` (stereo not drawn) [Example 27, 3-(6-Aminopyridin-3-yl)-2-[1-(5-chlorobenzo[b]thiophen-3-ylmethyl)-1H-imidazol-4-yl]-propionic acid], the IC50 stood at 1110 nM.

Regarding `Nc1ccc(CC(C(=O)O)c2cn(C3CCNCC3)cn2)cn1` (stereo not drawn) [Example 8, 3-(6-Aminopyridin-3-yl)-2-(1-piperidin-4-yl-1H-imidazol-4-yl)propionic acid], the IC50 is 1130 nM.

On to `Nc1ccc(CC(C(=O)O)c2cn(Cc3ccc(OC(F)(F)F)cc3)cn2)cn1` (stereo not drawn) [Example 25, 3-(6-Aminopyridin-3-yl)-2-[1-(4-trifluoromethoxybenzyl)-1H-imidazol-4-yl]propionic acid], for which the concentration for half-maximal inhibition (IC50) turned out to be 10500 nM.

With `Nc1ccc(CC(C(=O)O)c2cn(CCC3CCN(C(=O)CCc4ccccc4)CC3)cn2)cn1` (stereo not drawn) [Example 18, 3-(6-Aminopyridin-3-yl)-2-(1-{2-[1-(3-phenylpropionyl)piperidin-4-yl]ethyl}1H-imidazol-4-yl)propionic acid], the IC50 is 21 nM.

`Nc1ccc(CC(C(=O)O)c2cn(C3CCN(c4ccccc4)C3=O)cn2)cn1` (stereo not drawn) [Example 9, 3-(6-Aminopyridin-3-yl)-2-[1-(2-oxo-1-phenylpyrrolidin-3-yl)-1H-imidazol-4-yl]propionic acid]: half-maximal inhibition (IC50) required 439 nM.

`Nc1ccc(CC(C(=O)O)c2cn(-c3ccc(NC(=O)Nc4ccccc4)cc3)cn2)cn1` (stereo not drawn) [Example 12, 3-(6-Aminopyridin-3-yl)-2-{1-[4-(3-phenylureido)phenyl]-1H-imidazol-4-yl}propionic acid] registered a half-inhibitory concentration (IC50) of 15 nM.

Take `Nc1ccc(CC(C(=O)O)c2cn(C3CCCCC3)cn2)cn1` (stereo not drawn) [Example 1, 3-(6-Aminopyridin-3-yl)-2-(1-cyclohexyl-1H-imidazol-4-yl)propionic acid]: the IC50 came out at 30 nM.

As for `Nc1ccc(CC(C(=O)O)c2cn(C3CCCC3)cn2)cn1` (stereo not drawn) [Example 7, 3-(6-Aminopyridin-3-yl)-2-(1-cyclopentyl-1H-imidazol-4-yl)propionic acid], inhibition was half-maximal at 16 nM (IC50).

Regarding `Nc1ccc(CC(C(=O)O)c2cn(CC(=O)NC(c3ccccc3)c3ccccc3)cn2)cn1` (stereo not drawn) [Example 10, 3-(6-Aminopyridin-3-yl)-2-{1-[(benzhydrylcarbamoyl)methyl]-1H-imidazol-4-yl}-propionic acid], the 50% inhibitory concentration (IC50) came to 23 nM.

In turn, `Cc1ccc(S(=O)(=O)Nc2ccc(-n3cnc(C(Cc4ccc(N)nc4)C(=O)O)c3)cc2)cc1` (stereo not drawn) [Example 38] gave an IC50 of 50 nM.

In turn, `C#CCn1cnc(C(Cc2ccc(N)nc2)C(=O)O)c1` (stereo not drawn) [Example 31, 3-(6-Aminopyridin-3-yl)-2-(1-prop-2-ynyl-1H-imidazol-4-yl)propionic acid] yielded a half-inhibitory concentration (IC50) of 870 nM.

Molecule `Nc1ccc(CC(C(=O)O)c2cn(CCC3CCCN(C(=O)CCc4ccccc4)C3)cn2)cn1` (stereo not drawn) [Example 16, 3-(6-Aminopyridin-3-yl)-2-(1-{2-[1-(3-phenylpropionyl)piperidin-3-yl]ethyl}-1H-imidazol-4-yl)propionic acid] yielded an IC50 of 38 nM.

On to `Nc1ccc(CC(C(=O)O)c2cn(CCC3CCN(C(=O)C(c4ccccc4)c4ccccc4)CC3)cn2)cn1` (stereo not drawn) [Example 13, 3-(6-Aminopyridin-3-yl)-2-{1-[2-(1-diphenylacetylpiperidin-4-yl)ethyl]-1H-imidazol-4-yl}-propionic acid], for which 12 nM corresponded to half-maximal inhibition (IC50).

For `CC1(C)CCC(n2cnc(C(Cc3ccc(N)nc3)C(=O)O)c2)CC1` (stereo not drawn) [Example 33, 3-(6-Aminopyridin-3-yl)-2-[1-(4,4-dimethylcyclohexyl)-1H-imidazol-4-yl]propionic acid], half-maximal inhibition (IC50) required 3 nM.

The molecule `Nc1ccc(CC(C(=O)O)c2cn(CC3CCCN(C(=O)C(c4ccccc4)c4ccccc4)C3)cn2)cn1` (stereo not drawn) [Example 17, 3-(6-Aminopyridin-3-yl)-2-[1-(1-diphenylacetylpiperidin-3-ylmethyl)-1H-imidazol-4-yl]-propionic acid] returned a half-maximal inhibitory concentration (IC50) of 11 nM.

Take `CCCNC(=O)Nc1ccc(-n2cnc(C(Cc3ccc(N)nc3)C(=O)O)c2)cc1` (stereo not drawn) [Example 37, 3-(6-Aminopyridin-3-yl)-2-{1-[4-(3-propylureido)phenyl]-1H-imidazol-4-yl}propionic acid]: it took 49 nM to reach half-maximal inhibition (IC50).

The molecule `Nc1ccc(CC(C(=O)O)c2cn(CC3CCCCN3C(=O)c3ccccc3)cn2)cn1` (stereo not drawn) [Example 15, 3-(6-Aminopyridin-3-yl)-2-[1-(1-benzoylpiperidin-2-ylmethyl)-1H-imidazol-4-yl]propionic acid] showed a 50% inhibitory concentration (IC50) of 12 nM.
